Measurements: PubChem BioAssay (NCI)
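Where inhibition never reached the appropriate level, the endpoint shown equals the highest concentration tested. Otherwise, values were interpolated linearly from a five-concentration, 48-hour dose response in 96-well plates. GI50 is the concentration that inhibits growth by half. TGI is the concentration that stops growth completely.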

How the values were obtained:
Assay in all cases: NCI anticancer screen, dose series, 48 h
SN12C renal = tested on: SN12C renal
UACC-62 melanoma = tested on: UACC-62 melanoma
IGROV1 ovarian = tested on: IGROV1 ovarian
SF-295 CNS = tested on: SF-295 CNS
K-562 leukemia = tested on: K-562 leukemia
MDA-MB-231 breast = tested on: MDA-MB-231 breast
HCT-15 colon = tested on: HCT-15 colon
786-0 renal = tested on: 786-0 renal
OVCAR-3 ovarian = tested on: OVCAR-3 ovarian
M14 melanoma = tested on: M14 melanoma
HS 578T breast = tested on: HS 578T breast
NCI-H460 lung = tested on: NCI-H460 lung
SK-MEL-5 melanoma = tested on: SK-MEL-5 melanoma
SW-620 colon = tested on: SW-620 colon
SK-MEL-28 melanoma = tested on: SK-MEL-28 melanoma
MCF7 breast = tested on: MCF7 breast
MOLT-4 leukemia = tested on: MOLT-4 leukemia
HT29 colon = tested on: HT29 colon
NCI/ADR-RES ovarian = tested on: NCI/ADR-RES ovarian
RXF 393 renal = tested on: RXF 393 renal
SK-MEL-2 melanoma = tested on: SK-MEL-2 melanoma
MALME-3M melanoma = tested on: MALME-3M melanoma
MDA-MB-435 = tested on: MDA-MB-435
HCC-2998 colon = tested on: HCC-2998 colon
UO-31 renal = tested on: UO-31 renal
NCI-H23 lung = tested on: NCI-H23 lung
HCT-116 colon = tested on: HCT-116 colon
EKVX NSCLC = tested on: EKVX NSCLC
U251 CNS = tested on: U251 CNS
COLO 205 colon = tested on: COLO 205 colon
BT-549 breast = tested on: BT-549 breast
SK-OV-3 ovarian = tested on: SK-OV-3 ovarian
OVCAR-5 ovarian = tested on: OVCAR-5 ovarian
KM12 colon = tested on: KM12 colon
PC-3 prostate = tested on: PC-3 prostate
UACC-257 melanoma = tested on: UACC-257 melanoma
ACHN renal = tested on: ACHN renal
SNB-75 CNS = tested on: SNB-75 CNS
DU-145 prostate = tested on: DU-145 prostate
OVCAR-4 ovarian = tested on: OVCAR-4 ovarian
TK-10 renal = tested on: TK-10 renal
OVCAR-8 ovarian = tested on: OVCAR-8 ovarian
CAKI-1 renal = tested on: CAKI-1 renal
SNB-19 CNS = tested on: SNB-19 CNS
HOP-62 NSCLC = tested on: HOP-62 NSCLC
NCI-H522 lung = tested on: NCI-H522 lung
LOX IMVI melanoma = tested on: LOX IMVI melanoma
HOP-92 NSCLC = tested on: HOP-92 NSCLC
A549 NSCLC = tested on: A549 NSCLC
SF-268 CNS = tested on: SF-268 CNS
NCI-H226 lung = tested on: NCI-H226 lung
SF-539 CNS = tested on: SF-539 CNS
SR leukemia = tested on: SR leukemia
CCRF-CEM leukemia = tested on: CCRF-CEM leukemia
HL-60(TB) leukemia = tested on: HL-60(TB) leukemia

Compound: O=C1C=CC(=O)c2cc3cc(CO)ccc3cc21
- GI50 (SN12C renal): 5.76 µM
- TGI (SN12C renal): 15.8 µM
- GI50 (UACC-62 melanoma): 17.9 µM
- TGI (UACC-62 melanoma): 31.8 µM
- GI50 (IGROV1 ovarian): 8.79 µM
- TGI (IGROV1 ovarian): 26 µM
- GI50 (SF-295 CNS): 20 µM
- TGI (SF-295 CNS): 37.8 µM
- GI50 (K-562 leukemia): 1.06 µM
- TGI (K-562 leukemia): 3.04 µM
- GI50 (MDA-MB-231 breast): 11.5 µM
- TGI (MDA-MB-231 breast): 24.9 µM
- GI50 (HCT-15 colon): 15.1 µM
- TGI (HCT-15 colon): 28.4 µM
- GI50 (786-0 renal): 1.74 µM
- TGI (786-0 renal): 3.31 µM
- GI50 (OVCAR-3 ovarian): 1.71 µM
- TGI (OVCAR-3 ovarian): 4.2 µM
- GI50 (M14 melanoma): 14.4 µM
- TGI (M14 melanoma): 27.5 µM
- GI50 (HS 578T breast): 21.3 µM
- TGI (HS 578T breast): 55.4 µM
- GI50 (NCI-H460 lung): 19.1 µM
- TGI (NCI-H460 lung): 39.8 µM
- GI50 (SK-MEL-5 melanoma): 10.9 µM
- TGI (SK-MEL-5 melanoma): 22.9 µM
- GI50 (SW-620 colon): 1.51 µM
- TGI (SW-620 colon): 2.91 µM
- GI50 (SK-MEL-28 melanoma): 29.5 µM
- TGI (SK-MEL-28 melanoma): > 100 µM
- GI50 (MCF7 breast): 14.5 µM
- TGI (MCF7 breast): 33.3 µM
- GI50 (MOLT-4 leukemia): 0.621 µM
- TGI (MOLT-4 leukemia): > 100 µM
- GI50 (HT29 colon): 10.9 µM
- TGI (HT29 colon): > 100 µM
- GI50 (NCI/ADR-RES ovarian): 19.5 µM
- TGI (NCI/ADR-RES ovarian): 36.2 µM
- GI50 (RXF 393 renal): 14.6 µM
- TGI (RXF 393 renal): 29.9 µM
- GI50 (SK-MEL-2 melanoma): 16.8 µM
- TGI (SK-MEL-2 melanoma): 32.8 µM
- GI50 (MALME-3M melanoma): 11.5 µM
- TGI (MALME-3M melanoma): 26.1 µM
- GI50 (MDA-MB-435): 10.4 µM
- TGI (MDA-MB-435): 23.6 µM
- GI50 (HCC-2998 colon): 4.42 µM
- TGI (HCC-2998 colon): 14.1 µM
- GI50 (UO-31 renal): 2.35 µM
- TGI (UO-31 renal): 4.58 µM
- GI50 (NCI-H23 lung): 15.8 µM
- TGI (NCI-H23 lung): 29.2 µM
- GI50 (HCT-116 colon): 1.82 µM
- TGI (HCT-116 colon): 3.22 µM
- GI50 (EKVX NSCLC): 14.5 µM
- TGI (EKVX NSCLC): 28.1 µM
- GI50 (U251 CNS): 15.4 µM
- TGI (U251 CNS): 28.7 µM
- GI50 (COLO 205 colon): 11.1 µM
- TGI (COLO 205 colon): 49.5 µM
- GI50 (BT-549 breast): 12.9 µM
- TGI (BT-549 breast): 25.7 µM
- GI50 (SK-OV-3 ovarian): 31.9 µM
- TGI (SK-OV-3 ovarian): > 100 µM
- GI50 (OVCAR-5 ovarian): 20.5 µM
- TGI (OVCAR-5 ovarian): 55.6 µM
- GI50 (KM12 colon): 19.3 µM
- TGI (KM12 colon): 51.3 µM
- GI50 (PC-3 prostate): 16.2 µM
- TGI (PC-3 prostate): 34.1 µM
- GI50 (UACC-257 melanoma): 12 µM
- TGI (UACC-257 melanoma): 27.2 µM
- GI50 (ACHN renal): 3.22 µM
- TGI (ACHN renal): 10.8 µM
- GI50 (SNB-75 CNS): 19.9 µM
- TGI (SNB-75 CNS): 48.6 µM
- GI50 (DU-145 prostate): 1.1 µM
- TGI (DU-145 prostate): 2.54 µM
- GI50 (OVCAR-4 ovarian): 5.55 µM
- TGI (OVCAR-4 ovarian): 24.7 µM
- GI50 (TK-10 renal): 15.5 µM
- TGI (TK-10 renal): 30 µM
- GI50 (OVCAR-8 ovarian): 2.94 µM
- TGI (OVCAR-8 ovarian): 11.2 µM
- GI50 (CAKI-1 renal): 3.48 µM
- TGI (CAKI-1 renal): 10.3 µM
- GI50 (SNB-19 CNS): 20 µM
- TGI (SNB-19 CNS): 66.8 µM
- GI50 (HOP-62 NSCLC): 17.3 µM
- TGI (HOP-62 NSCLC): 31.1 µM
- GI50 (NCI-H522 lung): 9.48 µM
- TGI (NCI-H522 lung): 26.4 µM
- GI50 (LOX IMVI melanoma): 1.94 µM
- TGI (LOX IMVI melanoma): 4.1 µM
- GI50 (HOP-92 NSCLC): 2.76 µM
- TGI (HOP-92 NSCLC): 6.51 µM
- GI50 (A549 NSCLC): 19.3 µM
- TGI (A549 NSCLC): 45.1 µM
- GI50 (SF-268 CNS): 16.7 µM
- TGI (SF-268 CNS): 34.7 µM
- GI50 (NCI-H226 lung): 16.7 µM
- TGI (NCI-H226 lung): 31.5 µM

Compound: O=C(Nc1ccc(OCc2nnc(-c3ccc(Cl)cc3)o2)c(F)c1)c1ccc(Cl)c(C(F)(F)F)c1
- GI50 (SN12C renal): > 50 µM
- TGI (SN12C renal): > 50 µM
- GI50 (UACC-62 melanoma): > 50 µM
- TGI (UACC-62 melanoma): > 50 µM
- GI50 (IGROV1 ovarian): > 50 µM
- TGI (IGROV1 ovarian): > 50 µM
- GI50 (SF-295 CNS): > 50 µM
- TGI (SF-295 CNS): > 50 µM
- GI50 (K-562 leukemia): > 50 µM
- TGI (K-562 leukemia): > 50 µM
- GI50 (MDA-MB-231 breast): > 50 µM
- TGI (MDA-MB-231 breast): > 50 µM
- GI50 (786-0 renal): > 50 µM
- TGI (786-0 renal): > 50 µM
- GI50 (OVCAR-3 ovarian): > 50 µM
- TGI (OVCAR-3 ovarian): > 50 µM
- GI50 (M14 melanoma): > 50 µM
- TGI (M14 melanoma): > 50 µM
- GI50 (HS 578T breast): > 50 µM
- TGI (HS 578T breast): > 50 µM
- GI50 (SK-MEL-5 melanoma): > 50 µM
- TGI (SK-MEL-5 melanoma): > 50 µM
- GI50 (SW-620 colon): > 50 µM
- TGI (SW-620 colon): > 50 µM
- GI50 (SK-MEL-28 melanoma): > 50 µM
- TGI (SK-MEL-28 melanoma): > 50 µM
- GI50 (SF-539 CNS): > 50 µM
- TGI (SF-539 CNS): > 50 µM
- GI50 (MOLT-4 leukemia): > 50 µM
- TGI (MOLT-4 leukemia): > 50 µM
- GI50 (HT29 colon): > 50 µM
- TGI (HT29 colon): > 50 µM
- GI50 (NCI/ADR-RES ovarian): > 50 µM
- TGI (NCI/ADR-RES ovarian): > 50 µM
- GI50 (SR leukemia): > 50 µM
- TGI (SR leukemia): > 50 µM
- GI50 (RXF 393 renal): > 50 µM
- TGI (RXF 393 renal): > 50 µM
- GI50 (SK-MEL-2 melanoma): > 50 µM
- TGI (SK-MEL-2 melanoma): > 50 µM
- GI50 (MALME-3M melanoma): > 50 µM
- TGI (MALME-3M melanoma): > 50 µM
- GI50 (MDA-MB-435): > 50 µM
- TGI (MDA-MB-435): > 50 µM
- GI50 (HCC-2998 colon): > 50 µM
- TGI (HCC-2998 colon): > 50 µM
- GI50 (CCRF-CEM leukemia): > 50 µM
- TGI (CCRF-CEM leukemia): > 50 µM
- GI50 (NCI-H23 lung): > 50 µM
- TGI (NCI-H23 lung): > 50 µM
- GI50 (HCT-116 colon): > 50 µM
- TGI (HCT-116 colon): > 50 µM
- GI50 (U251 CNS): > 50 µM
- TGI (U251 CNS): > 50 µM
- GI50 (COLO 205 colon): > 50 µM
- TGI (COLO 205 colon): > 50 µM
- GI50 (BT-549 breast): > 50 µM
- TGI (BT-549 breast): > 50 µM
- GI50 (SK-OV-3 ovarian): > 50 µM
- TGI (SK-OV-3 ovarian): > 50 µM
- GI50 (OVCAR-5 ovarian): > 50 µM
- TGI (OVCAR-5 ovarian): > 50 µM
- GI50 (UACC-257 melanoma): > 50 µM
- TGI (UACC-257 melanoma): > 50 µM
- GI50 (ACHN renal): > 50 µM
- TGI (ACHN renal): > 50 µM
- GI50 (HL-60(TB) leukemia): > 50 µM
- TGI (HL-60(TB) leukemia): > 50 µM
- GI50 (SNB-75 CNS): > 50 µM
- TGI (SNB-75 CNS): > 50 µM
- GI50 (DU-145 prostate): > 50 µM
- TGI (DU-145 prostate): > 50 µM
- GI50 (OVCAR-4 ovarian): > 50 µM
- TGI (OVCAR-4 ovarian): > 50 µM
- GI50 (TK-10 renal): > 50 µM
- TGI (TK-10 renal): > 50 µM
- GI50 (OVCAR-8 ovarian): > 50 µM
- TGI (OVCAR-8 ovarian): > 50 µM
- GI50 (SNB-19 CNS): > 50 µM
- TGI (SNB-19 CNS): > 50 µM
- GI50 (HOP-62 NSCLC): > 50 µM
- TGI (HOP-62 NSCLC): > 50 µM
- GI50 (LOX IMVI melanoma): > 50 µM
- TGI (LOX IMVI melanoma): > 50 µM
- GI50 (HOP-92 NSCLC): > 50 µM
- TGI (HOP-92 NSCLC): > 50 µM
- GI50 (A549 NSCLC): > 50 µM
- TGI (A549 NSCLC): > 50 µM
- GI50 (SF-268 CNS): > 50 µM
- TGI (SF-268 CNS): > 50 µM
- GI50 (NCI-H226 lung): > 50 µM
- TGI (NCI-H226 lung): > 50 µM
